Holding throughout (assay type): in vivo
Assay [1] has as its system Tetranychus urticae (spider mites - adult). Put plainly: Contact test, spider mites - adult (TUa), French bean leaf. To be noted: 72 h, 500 ppm, 3 days, read-out: TUA grading of mortality. The essentials:
(§1)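 Insects placed on host plant or food medium; medium and/or insects treated with aqueous preparations of 100 to 500 ppm Product by weight, made from acetone solutions diluted in water with 0.1% wetting agent. Mortality was then assessed, usually after one to seven days.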

Assay [2] concerns Tetranychus urticae (spider mites - ova). Put plainly: Contact test, spider mites - ova (TUe), French bean leaf. To be noted: 144 h, 500 ppm, 6 days, read-out: TUE grading of mortality. Put shortly:
as §1

The next assay concerns Myzus persicae (aphids). Put plainly: Contact test, aphids (MP), Chinese Cabbage leaf. The settings on record: 72 h, 500 ppm, 3 days, read-out: MP grading of mortality. The essentials: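 Aphids on a host plant and/or the plant itself were treated with 100–500 ppm of product, applied from acetone diluted in water containing 0.1% SYNPERONIC NX wetting agent. Mortality was scored usually one to seven days after treatment.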

For assay [3], the system named is Nilaparvata lugens (brown plant hopper - nymphs). Put plainly: Contact test, brown plant hopper - nymphs (NL), Rice plant. To be noted: 72 h, 500 ppm, 3 days, read-out: NL grading of mortality. The essentials: as §1
Assay [4] concerns Musca domestica (houseflies - adults). Put plainly: Knockdown test, houseflies - adults (MD/KD), Cotton wool/sugar. To be noted: 500 ppm, 4 hours, read-out: MD/KD grading of knockdown. Put shortly: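 Product was dissolved in acetone and diluted with water containing 0.1% wetting agent to 100–500 ppm. The flies and/or their food medium were treated with the preparation. Mortality was scored 1–7 days after treatment, with an additional knockdown assessment for houseflies.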

The test system is the same in assay [5]. Put plainly: Contact test, houseflies - adults (MD), Cotton wool/sugar. The settings on record: 24 h, 500 ppm, 1 day, read-out: MD grading of mortality. The essentials:
as §1

The test system of assay [6] is Blattella germanica (cockroach nymphs). Put plainly: Residual test, cockroach nymphs (BG), Plastic pot. The settings on record: 72 h, 500 ppm, 3 days, read-out: BG grading of mortality. Put shortly: as §1
The test system of assay [7] is Heliothis virescens (tobacco budworm - larvae). Put plainly: Residual test, tobacco budworm - larvae (HV), Cotton leaf. The settings on record: 72 h, read-out: HV grading of mortality. Put shortly:
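Products applied as acetone solutions diluted in water with 0.1% wetting agent, at 100–500 ppm; pests on host plant or food, with pests and/or medium treated. Mortality or knockdown scored 1–7 days after treatment and graded A (80–100%), B (50–79%) or C (<50%).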

Assay [8] relates to Spodoptera exigua (lesser army worm - larvae). Put plainly: Residual test, lesser army worm - larvae (SP), Cotton leaf. The settings on record: 72 h, 500 ppm, 3 days, read-out: SP grading of mortality. The essentials: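 Compound dissolved in acetone and diluted in water with 0.1% Synperonic NX wetting agent to 100–500 ppm. Pests on host plant or food, with pests and/or medium treated. Mortality assessed 1–7 days after treatment and graded A (80–100%), B (50–79%) or C (<50%).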

Assay [9] relates to Diabrotica balteata (rootworm larvae). Put plainly: Residual test, rootworm larvae (DB), Filter paper/maize seed. The settings on record: 72 h, 500 ppm, 3 days, read-out: DB grading of mortality. Put shortly: as §1
Assay [10] has as its system Meloidogyne incognita (Tomato root knot eelworm - larvae). Put plainly: Residual test, Tomato root knot eelworm - larvae (MI), Semi in-vitro. The settings on record: 168 h, rate column 500 ppm, application rate is half that recorded, 7 days, read-out: MI grading of mortality.
Description: The activity of the Product was determined using a variety of insect pests. The Product was used in the form of liquid preparations containing from 100 to 500 parts per million (ppm) by weight of the Product. The preparations were made by dissolving the Product in acetone and diluting the solutions with water containing 0.1% by weight of a wetting agent sold under the trade name "SYNPERONIC" NX until the liquid preparations contained the required concentration of the Product.
The test procedure adopted with regard to each pest was basically the same and comprised supporting a number of the pests on a medium which was usually a host plant or a foodstuff on which the pests feed, and treating either or both the pests and the medium with the preparations. The mortality of the pests was then assessed at periods usually varying from one to seven days after the treatment.
The results of the tests are given in Table III for each of the Products, at the rate in parts per million given in the second column as a grading of mortality designated as A, B or C wherein A indicates 80-100% mortality or knockdown (70-100% for Meloidogyne incognita), B indicates 50-79% mortality knockdown or knockdown (50-69% for Meloidogyne incognita) and C indicates less than 50% mortality or knockdown.

Here are results for nine molecules from patent US4791139A, “Diphenyl ether derivatives and their use as insecticides” (Imperial Chemical Industries PLC, priority 1986, dated 1988).

In general, mortality refers to the percentage killed. For the molecule `FC(F)(F)C(CCCc1cccc(Oc2ccccc2)c1)c1ccc(OC(F)(F)C(F)(F)Br)cc1` (racemic) [Compound 68, 1,1,1-trifluoro-2-[4-(2-bromo-1,1,2,2-tetrafluoroethoxy)phenyl]-5-(3-phenoxyphenyl)-pentane], the mortality at 500 ppm in assay [1] is 80 to 100%; in [2], 80 to 100%; in the assay on Myzus persicae (aphids) it was less than 50%; in [3], 80 to 100%; in assay [5], less than 50%; in assay [6], 80 to 100%. Besides, the mortality at 500 ppm is less than 50% in assay [7], 50 to 79% in assay [8] and 80 to 100% in assay [9]. For the same molecule, the pest or weed control at 500 ppm in assay [4] is less than 50%. Besides, the mortality at 250 µg/mL in [10] was less than 50%.
Regarding `CCOc1ccc(C(=CC=Cc2cccc(Oc3ccccc3)n2)C(F)(F)F)cc1` [Compound 100, 1,1,1-Trifluoro-2-(4-ethoxyphenyl)-5-(6-phenoxypyrid-2-yl)penta-2,4-diene], the mortality at 500 ppm in assay [1] is less than 50%; in [2], less than 50%; in the assay on Myzus persicae (aphids) it was less than 50%; in [3], 50 to 79%; in assay [5] it was less than 50%; in assay [6], less than 50%. The mortality at 500 ppm in assay [7], in assay [8] and in assay [9] was less than 50% throughout. In assay [4], the pest or weed control at 500 ppm lay in the range of 50 to 79%. Also, the mortality at 250 µg/mL in assay [10] is less than 50%.
In the case of `Fc1ccc(C=CC=C(c2ccc(OC(F)(F)F)cc2)C(F)F)cc1Oc1ccccc1` [Compound 77, 1,1-difluoro-2-(4-trifluoromethoxyphenyl)-5-(4-fluoro-3-phenoxyphenyl)penta-2,4-diene], the mortality at 500 ppm in assay [1] is less than 50%; in [2], less than 50%; in the assay on Myzus persicae (aphids) it was 80 to 100%; in [3] it was 80 to 100%; in assay [5], less than 50%; in assay [6], less than 50%. The mortality at 500 ppm in assay [7], in assay [8] and in assay [9] was 80 to 100% in each case. The pest or weed control at 500 ppm in assay [4] was less than 50%. Besides, the mortality at 250 µg/mL in assay [10] lay in the range of 50 to 69%.
With `COc1ccc(C(CCCc2cccc(Oc3ccccc3)c2)C(F)(F)F)cc1` (racemic) [Compound 49, 1,1,1-Trifluoro-2-(4-methoxyphenyl)-5-(3-phenoxyphenyl)pentane], the mortality at 500 ppm in assay [1] was less than 50%; in assay [2], less than 50%; in the assay on Myzus persicae (aphids), 80 to 100%; in [3] it was 80 to 100%; in [5], 80 to 100%; in assay [6], less than 50%. For the same molecule, the mortality at 500 ppm in assay [7] is 80 to 100%; in assay [8] it was 80 to 100%; in assay [9] it was less than 50%. For the same molecule, in assay [4], the pest or weed control at 500 ppm lay within 80 to 100%. The mortality at 250 µg/mL in assay [10] was less than 50%.
`Fc1cc(Br)c(C(=CC=Cc2cccc(Oc3ccccc3)c2)C(F)(F)F)c(F)c1OC(F)(F)F` [Compound 74, 1,1,1-Trifluoro-2-(2-bromo-4,6-difluoro-5-trifluoromethoxyphenyl)-5-(3-phenoxyphenyl)penta-2,4-diene]: the mortality at 500 ppm in assay [1] was 50 to 79%; in [2], less than 50%; with Myzus persicae (aphids) it was less than 50%; in assay [3], less than 50%; in [5], less than 50%; in assay [6], less than 50%. Besides, the mortality at 500 ppm in assay [7], in assay [8] and in assay [9] was less than 50% each time. Further, in [4], the pest or weed control at 500 ppm is less than 50%. The mortality at 250 µg/mL in assay [10] is less than 50%.
With `COCc1ccc(C(CCCc2cccc(Oc3ccccc3)c2)C(F)(F)F)cc1` (racemic) [Compound 45, 1,1,1-Trifluoro-2-(4-methoxymethylphenyl)-5-(3-phenoxyphenyl)pentane], the mortality at 500 ppm was less than 50% in assay [1]; less than 50% in assay [2]; less than 50% in the assay with Myzus persicae (aphids); 80 to 100% in assay [3]; 80 to 100% in [5]; less than 50% in assay [6]. The mortality at 500 ppm in [7], in [8] and in assay [9] was 80 to 100% each time. In assay [4], the pest or weed control at 500 ppm was in the range of 80 to 100%. In addition, the mortality at 250 µg/mL in assay [10] is less than 50%.
Regarding `Fc1ccc(CCCC(c2ccc(OC(F)(F)F)cc2)C(F)F)cc1Oc1ccccc1` (racemic) [Compound 27, 1,1-Difluoro-2-(4-trifluoromethoxyphenyl)-5-(4-fluoro-3-phenoxyphenyl)pentane], the mortality at 500 ppm in assay [1] was 80 to 100%; in [2], less than 50%; in the assay with Myzus persicae (aphids), 80 to 100%; in [3], 80 to 100%; in assay [5], 80 to 100%; in assay [6], 80 to 100%. Further, the mortality at 500 ppm in assay [7], in [8] and in [9] was 80 to 100% each time. In addition, the pest or weed control at 500 ppm in assay [4] was in the range of 80 to 100%. The mortality at 250 µg/mL in assay [10] is less than 50%.
On to `CC1(C)Oc2ccc(C(CCCc3cccc(Oc4ccccc4)c3)C(F)(F)F)cc2O1` (stereo not drawn) [Compound 58, 1,1,1-Trifluoro-2-[3,4-(dimethylmethylenedioxy)phenyl]-5-(3-phenoxyphenyl)pentane], for which the mortality at 500 ppm in assay [1] was less than 50%; in assay [2] it was 80 to 100%; in the assay with Myzus persicae (aphids) it was 50 to 79%; in assay [3], 80 to 100%; in assay [5] it was 80 to 100%; in [6] it was 80 to 100%. In addition, the mortality at 500 ppm in [7] is less than 50%; in assay [8] it was 50 to 79%; in assay [9] it was 80 to 100%. The pest or weed control at 500 ppm in assay [4] was 80 to 100%. Moreover, in [10], the mortality at 250 µg/mL is less than 50%.
Turning to `Fc1cc(C(CCCc2cccc(Oc3ccccc3)c2)C(F)(F)F)cc(F)c1OC(F)(F)F` (racemic) [Compound 71, 1,1,1-Trifluoro-2-(3,5-difluoro-4-trifluoromethoxyphenyl)-5-(3-phenoxyphenyl)pentane], the mortality at 500 ppm is less than 50% in [1]; less than 50% in assay [2]; 80 to 100% in the assay with Myzus persicae (aphids); 50 to 79% in assay [3]; less than 50% in [5]; less than 50% in [6]. Further, the mortality at 500 ppm in assay [7], in assay [8] and in [9] was 80 to 100% throughout. Besides, in assay [4], the pest or weed control at 500 ppm is less than 50%. In addition, the mortality at 250 µg/mL in assay [10] is 70 to 100%.
